Measurements from article PMC5761851, “Application of a phenotypic drug discovery strategy to identify biological and chemical starting points for inhibition of TSLP production in lung epithelial cells” (PLoS ONE, 2018).

Legend:
Test in all cases: kinase selectivity panel
Type in all cases: biochemical
CHK1 = biological target: T1, CHK1 (Homo sapiens, UniProt O14757); settings: read-out: percentage of control activity (POC), CHK1
T1 construct: purchased Eurofins Pharma Discovery Services (KinaseProfiler; Cerep BioPrint panel)
T1 sequence (O14757 1-476): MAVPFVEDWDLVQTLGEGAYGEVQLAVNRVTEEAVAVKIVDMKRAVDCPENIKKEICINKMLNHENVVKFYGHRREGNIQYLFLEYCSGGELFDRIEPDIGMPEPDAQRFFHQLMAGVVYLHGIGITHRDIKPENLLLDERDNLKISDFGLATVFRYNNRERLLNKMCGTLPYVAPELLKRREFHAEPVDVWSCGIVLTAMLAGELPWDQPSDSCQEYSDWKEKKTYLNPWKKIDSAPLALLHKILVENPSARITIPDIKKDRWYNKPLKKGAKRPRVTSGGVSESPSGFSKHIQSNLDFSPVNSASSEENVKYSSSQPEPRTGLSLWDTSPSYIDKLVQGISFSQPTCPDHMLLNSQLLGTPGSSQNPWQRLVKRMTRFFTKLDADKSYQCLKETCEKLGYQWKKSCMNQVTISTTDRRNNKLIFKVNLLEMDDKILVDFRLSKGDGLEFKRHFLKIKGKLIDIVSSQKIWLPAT
Outline: (§1)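 Tested at 10 μM in duplicate within a panel of 125 representative kinases. For selected activities, IC50 values were then determined from 9 concentrations, each run in duplicate.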

CK2α2 = biological target: T2, CK2α2 (Homo sapiens, UniProt P19784); settings: read-out: percentage of control activity (POC), CK2α2
T2 construct: purchased Eurofins Pharma Discovery Services (KinaseProfiler; Cerep BioPrint panel)
Outline: as §1

Flt3 = biological target: T3, Flt3 (Homo sapiens, UniProt P36888); settings: read-out: percentage of control activity (POC), Flt3
T3 construct: purchased Eurofins Pharma Discovery Services (KinaseProfiler; Cerep BioPrint panel)
T3 sequence (P36888 27-993): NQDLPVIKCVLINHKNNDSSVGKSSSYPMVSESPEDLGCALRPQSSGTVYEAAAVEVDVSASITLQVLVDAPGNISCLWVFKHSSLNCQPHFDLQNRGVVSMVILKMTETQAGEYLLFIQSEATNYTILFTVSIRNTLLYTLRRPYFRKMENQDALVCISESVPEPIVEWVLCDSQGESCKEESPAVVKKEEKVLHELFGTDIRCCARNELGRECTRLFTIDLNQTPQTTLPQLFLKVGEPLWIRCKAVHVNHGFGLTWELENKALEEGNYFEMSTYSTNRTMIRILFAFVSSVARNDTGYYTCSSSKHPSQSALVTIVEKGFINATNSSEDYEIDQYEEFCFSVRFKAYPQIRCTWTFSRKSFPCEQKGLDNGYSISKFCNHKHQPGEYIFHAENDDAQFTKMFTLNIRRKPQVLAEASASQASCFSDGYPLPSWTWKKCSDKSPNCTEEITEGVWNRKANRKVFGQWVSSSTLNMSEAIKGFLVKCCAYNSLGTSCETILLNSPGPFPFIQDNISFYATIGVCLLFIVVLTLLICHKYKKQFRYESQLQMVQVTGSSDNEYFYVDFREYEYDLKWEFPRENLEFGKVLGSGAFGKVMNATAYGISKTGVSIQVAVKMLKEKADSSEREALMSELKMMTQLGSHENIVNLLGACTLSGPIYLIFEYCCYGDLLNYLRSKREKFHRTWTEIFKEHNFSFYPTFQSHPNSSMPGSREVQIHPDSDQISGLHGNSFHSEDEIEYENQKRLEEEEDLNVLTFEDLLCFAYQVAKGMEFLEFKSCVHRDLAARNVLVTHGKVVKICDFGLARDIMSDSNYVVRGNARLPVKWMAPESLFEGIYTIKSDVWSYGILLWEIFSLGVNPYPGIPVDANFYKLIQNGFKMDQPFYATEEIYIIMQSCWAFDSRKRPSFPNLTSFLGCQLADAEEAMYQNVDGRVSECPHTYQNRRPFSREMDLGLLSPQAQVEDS
Outline: as §1

Met = biological target: T4, Met (Homo sapiens, UniProt P08581); settings: read-out: percentage of control activity (POC), Met
T4 construct: purchased Eurofins Pharma Discovery Services (KinaseProfiler; Cerep BioPrint panel)
Outline: as §1

NEK2 = biological target: T5, NEK2 (Homo sapiens, UniProt P51955); settings: read-out: percentage of control activity (POC), NEK2
T5 construct: purchased Eurofins Pharma Discovery Services (KinaseProfiler; Cerep BioPrint panel)
T5 sequence (P51955 1-445): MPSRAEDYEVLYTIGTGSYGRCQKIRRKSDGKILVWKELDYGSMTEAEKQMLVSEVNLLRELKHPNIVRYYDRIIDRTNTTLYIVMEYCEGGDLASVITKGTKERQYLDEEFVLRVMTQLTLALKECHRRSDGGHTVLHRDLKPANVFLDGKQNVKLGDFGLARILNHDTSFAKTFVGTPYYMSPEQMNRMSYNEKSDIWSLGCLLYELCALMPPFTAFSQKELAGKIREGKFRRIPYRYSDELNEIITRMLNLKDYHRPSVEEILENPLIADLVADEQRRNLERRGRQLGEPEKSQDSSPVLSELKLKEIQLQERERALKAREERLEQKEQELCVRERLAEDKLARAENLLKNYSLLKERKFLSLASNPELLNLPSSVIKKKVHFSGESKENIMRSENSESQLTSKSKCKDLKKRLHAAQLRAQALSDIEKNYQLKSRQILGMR
Outline: as §1

PI3K (p110d/p85a) = biological target: T6, PI3K (p110d/p85a) (Homo sapiens, UniProt O00329); settings: for remaining activity at 10 µM: read-out: percentage of control activity (POC), PI3K (p110d/p85a)
T6 construct: Eurofins Pharma Discovery Services (contract assay service)
Outline: as §1

ROCK-II = biological target: T7, ROCK-II (Homo sapiens, UniProt O75116); settings: read-out: percentage of control activity (POC), ROCK-II
T7 construct: purchased Eurofins Pharma Discovery Services (KinaseProfiler; Cerep BioPrint panel)
Outline: as §1

Syk = Syk (Homo sapiens, UniProt P43405); settings: read-out: percentage of control activity (POC), Syk
Outline: as §1

cKit = biological target: T8, cKit (Homo sapiens, UniProt P10721); settings: read-out: percentage of control activity (POC), cKit
T8 construct: purchased Eurofins Pharma Discovery Services (KinaseProfiler; Cerep BioPrint panel)
Outline: as §1

cSRC = biological target: T9, cSRC (Homo sapiens, UniProt P12931); settings: read-out: percentage of control activity (POC), cSRC
T9 construct: purchased Eurofins Pharma Discovery Services (KinaseProfiler; Cerep BioPrint panel)
Outline: as §1

T6 sequence (O00329 whole entry): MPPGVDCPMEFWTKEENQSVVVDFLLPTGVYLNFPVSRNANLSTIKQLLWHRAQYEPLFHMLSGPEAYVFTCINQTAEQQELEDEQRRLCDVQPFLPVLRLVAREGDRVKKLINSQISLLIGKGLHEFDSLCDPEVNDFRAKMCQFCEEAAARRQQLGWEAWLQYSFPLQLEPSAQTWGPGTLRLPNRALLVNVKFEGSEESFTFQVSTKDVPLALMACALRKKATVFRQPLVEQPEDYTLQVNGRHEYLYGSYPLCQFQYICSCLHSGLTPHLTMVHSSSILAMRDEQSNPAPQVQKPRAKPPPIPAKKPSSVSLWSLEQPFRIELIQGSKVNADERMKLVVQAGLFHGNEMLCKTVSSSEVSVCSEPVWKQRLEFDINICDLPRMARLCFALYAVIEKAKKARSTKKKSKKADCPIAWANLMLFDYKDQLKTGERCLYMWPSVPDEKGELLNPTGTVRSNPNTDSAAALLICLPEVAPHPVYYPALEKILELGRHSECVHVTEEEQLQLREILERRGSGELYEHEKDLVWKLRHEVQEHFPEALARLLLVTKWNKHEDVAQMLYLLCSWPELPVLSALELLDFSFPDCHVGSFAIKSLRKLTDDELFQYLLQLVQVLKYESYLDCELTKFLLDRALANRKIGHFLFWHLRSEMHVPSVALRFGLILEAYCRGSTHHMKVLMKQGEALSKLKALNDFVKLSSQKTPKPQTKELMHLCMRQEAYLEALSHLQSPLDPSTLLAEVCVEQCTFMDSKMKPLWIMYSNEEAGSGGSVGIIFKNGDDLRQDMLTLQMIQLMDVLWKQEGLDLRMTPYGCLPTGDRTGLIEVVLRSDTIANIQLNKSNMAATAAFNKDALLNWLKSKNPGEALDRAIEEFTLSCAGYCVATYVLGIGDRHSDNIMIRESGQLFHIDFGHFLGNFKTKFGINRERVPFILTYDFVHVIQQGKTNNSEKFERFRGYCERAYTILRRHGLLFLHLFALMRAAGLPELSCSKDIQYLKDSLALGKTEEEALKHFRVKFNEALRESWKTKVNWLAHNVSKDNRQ
T6 sequence (P27986 whole entry partner): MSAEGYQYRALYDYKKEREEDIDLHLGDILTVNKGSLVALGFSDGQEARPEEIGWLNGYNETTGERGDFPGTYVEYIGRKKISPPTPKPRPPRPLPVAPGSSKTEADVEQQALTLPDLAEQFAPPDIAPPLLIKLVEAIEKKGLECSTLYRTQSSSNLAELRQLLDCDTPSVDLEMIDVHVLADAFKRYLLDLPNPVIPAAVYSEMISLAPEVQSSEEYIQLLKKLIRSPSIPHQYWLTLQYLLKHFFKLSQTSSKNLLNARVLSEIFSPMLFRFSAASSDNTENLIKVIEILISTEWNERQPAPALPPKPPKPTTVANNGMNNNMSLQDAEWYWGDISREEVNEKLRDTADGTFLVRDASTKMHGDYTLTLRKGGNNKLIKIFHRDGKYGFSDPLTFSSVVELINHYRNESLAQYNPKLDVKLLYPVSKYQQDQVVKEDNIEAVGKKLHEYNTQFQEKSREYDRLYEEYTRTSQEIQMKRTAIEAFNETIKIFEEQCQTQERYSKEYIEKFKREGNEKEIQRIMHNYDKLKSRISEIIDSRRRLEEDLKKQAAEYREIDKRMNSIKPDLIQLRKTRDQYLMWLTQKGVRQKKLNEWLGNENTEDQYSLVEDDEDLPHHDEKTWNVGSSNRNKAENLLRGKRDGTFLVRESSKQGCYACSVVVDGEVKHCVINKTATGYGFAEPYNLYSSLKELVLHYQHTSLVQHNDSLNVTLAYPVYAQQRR
T4 sequence (P08581 25-1390): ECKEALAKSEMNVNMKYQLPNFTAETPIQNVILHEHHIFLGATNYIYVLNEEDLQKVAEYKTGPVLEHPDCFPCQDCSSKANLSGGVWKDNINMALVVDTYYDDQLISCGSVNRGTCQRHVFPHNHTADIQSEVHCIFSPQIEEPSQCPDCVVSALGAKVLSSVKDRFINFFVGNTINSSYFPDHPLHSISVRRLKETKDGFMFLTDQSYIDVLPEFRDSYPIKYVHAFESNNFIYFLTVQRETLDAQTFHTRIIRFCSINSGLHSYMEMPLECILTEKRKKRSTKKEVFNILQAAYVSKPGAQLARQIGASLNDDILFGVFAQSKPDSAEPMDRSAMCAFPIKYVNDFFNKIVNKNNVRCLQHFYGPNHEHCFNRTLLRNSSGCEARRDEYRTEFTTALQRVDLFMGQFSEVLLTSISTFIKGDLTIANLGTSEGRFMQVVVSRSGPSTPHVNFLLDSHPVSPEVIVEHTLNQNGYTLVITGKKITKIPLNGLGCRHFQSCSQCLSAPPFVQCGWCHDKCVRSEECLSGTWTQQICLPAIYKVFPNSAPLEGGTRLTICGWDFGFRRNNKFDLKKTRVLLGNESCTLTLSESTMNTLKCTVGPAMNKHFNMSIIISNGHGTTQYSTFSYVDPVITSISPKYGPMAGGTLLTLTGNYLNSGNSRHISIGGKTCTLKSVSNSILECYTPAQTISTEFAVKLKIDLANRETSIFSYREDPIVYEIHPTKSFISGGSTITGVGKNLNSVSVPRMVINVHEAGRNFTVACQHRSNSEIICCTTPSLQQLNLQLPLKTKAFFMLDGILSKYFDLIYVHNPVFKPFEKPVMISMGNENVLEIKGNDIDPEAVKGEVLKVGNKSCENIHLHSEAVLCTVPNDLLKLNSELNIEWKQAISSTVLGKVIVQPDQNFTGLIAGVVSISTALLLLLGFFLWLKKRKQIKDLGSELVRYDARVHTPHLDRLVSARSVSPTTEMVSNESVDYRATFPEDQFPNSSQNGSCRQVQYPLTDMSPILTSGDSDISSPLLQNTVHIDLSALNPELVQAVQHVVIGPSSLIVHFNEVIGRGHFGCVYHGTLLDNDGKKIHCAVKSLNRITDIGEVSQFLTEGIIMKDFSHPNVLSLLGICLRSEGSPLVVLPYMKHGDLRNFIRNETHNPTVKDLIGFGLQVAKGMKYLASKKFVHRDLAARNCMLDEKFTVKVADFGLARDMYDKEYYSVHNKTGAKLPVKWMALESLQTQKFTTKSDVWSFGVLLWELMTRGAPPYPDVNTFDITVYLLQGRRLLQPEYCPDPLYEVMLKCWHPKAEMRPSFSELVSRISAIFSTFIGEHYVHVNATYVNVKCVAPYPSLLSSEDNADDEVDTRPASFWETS
T8 sequence (P10721 26-976): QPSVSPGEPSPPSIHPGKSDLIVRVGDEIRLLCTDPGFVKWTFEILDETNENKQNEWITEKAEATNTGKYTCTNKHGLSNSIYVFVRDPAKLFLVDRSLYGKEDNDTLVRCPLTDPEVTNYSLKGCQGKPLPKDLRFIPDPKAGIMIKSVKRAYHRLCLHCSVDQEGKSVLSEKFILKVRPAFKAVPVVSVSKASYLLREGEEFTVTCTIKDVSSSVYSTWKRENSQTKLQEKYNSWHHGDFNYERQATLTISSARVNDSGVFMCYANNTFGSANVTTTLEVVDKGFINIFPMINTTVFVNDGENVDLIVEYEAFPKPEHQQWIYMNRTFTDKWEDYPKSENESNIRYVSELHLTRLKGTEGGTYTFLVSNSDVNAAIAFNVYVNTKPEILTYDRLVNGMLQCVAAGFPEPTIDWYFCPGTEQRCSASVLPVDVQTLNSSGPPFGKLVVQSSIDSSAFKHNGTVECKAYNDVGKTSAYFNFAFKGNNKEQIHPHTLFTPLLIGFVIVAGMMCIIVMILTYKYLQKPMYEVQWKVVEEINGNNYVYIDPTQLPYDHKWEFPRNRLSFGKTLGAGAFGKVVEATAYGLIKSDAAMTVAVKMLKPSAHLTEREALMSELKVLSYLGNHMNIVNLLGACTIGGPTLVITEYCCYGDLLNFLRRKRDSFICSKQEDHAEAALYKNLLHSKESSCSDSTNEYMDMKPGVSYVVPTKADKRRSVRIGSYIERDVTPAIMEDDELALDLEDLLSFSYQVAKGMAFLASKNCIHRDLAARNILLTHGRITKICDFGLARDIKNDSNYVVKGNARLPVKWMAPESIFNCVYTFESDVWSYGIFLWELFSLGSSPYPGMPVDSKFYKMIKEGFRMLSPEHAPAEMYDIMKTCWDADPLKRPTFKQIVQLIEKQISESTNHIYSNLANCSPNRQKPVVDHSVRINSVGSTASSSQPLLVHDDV
T9 sequence (P12931 whole entry): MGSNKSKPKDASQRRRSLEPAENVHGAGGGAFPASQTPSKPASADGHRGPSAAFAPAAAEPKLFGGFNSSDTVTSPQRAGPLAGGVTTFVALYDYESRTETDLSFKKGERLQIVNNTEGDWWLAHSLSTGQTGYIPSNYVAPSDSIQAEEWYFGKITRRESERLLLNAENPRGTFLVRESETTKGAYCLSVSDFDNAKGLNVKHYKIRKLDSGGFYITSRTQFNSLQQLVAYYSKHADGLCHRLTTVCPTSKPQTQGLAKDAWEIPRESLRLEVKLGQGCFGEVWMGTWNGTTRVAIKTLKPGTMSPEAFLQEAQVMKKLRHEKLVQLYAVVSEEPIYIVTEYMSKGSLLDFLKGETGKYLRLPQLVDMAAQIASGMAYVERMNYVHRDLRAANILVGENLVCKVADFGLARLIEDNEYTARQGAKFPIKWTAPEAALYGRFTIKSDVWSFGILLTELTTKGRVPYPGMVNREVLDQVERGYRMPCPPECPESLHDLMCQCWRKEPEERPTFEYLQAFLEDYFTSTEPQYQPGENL
T2 sequence (P19784 whole entry): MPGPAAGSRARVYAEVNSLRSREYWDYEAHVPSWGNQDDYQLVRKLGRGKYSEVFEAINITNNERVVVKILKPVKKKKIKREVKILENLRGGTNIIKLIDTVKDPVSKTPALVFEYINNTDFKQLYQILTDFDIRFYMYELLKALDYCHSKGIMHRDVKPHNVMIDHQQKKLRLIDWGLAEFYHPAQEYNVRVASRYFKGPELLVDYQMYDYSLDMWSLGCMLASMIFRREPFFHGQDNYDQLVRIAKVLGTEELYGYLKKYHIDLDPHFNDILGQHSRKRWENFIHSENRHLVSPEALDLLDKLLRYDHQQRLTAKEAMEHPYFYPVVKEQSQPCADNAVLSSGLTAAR

| SMILES | remaining activity at 10 µM (CHK1) [%] | remaining activity at 10 µM (CK2α2) [%] | remaining activity at 10 µM (Flt3) [%] | remaining activity at 10 µM (Met) [%] | remaining activity at 10 µM (NEK2) [%] | remaining activity at 10 µM (PI3K (p110d/p85a); 10 μM) [%] | remaining activity at 10 µM (ROCK-II) [%] | remaining activity at 10 µM (Syk) [%] | remaining activity at 10 µM (cKit) [%] | remaining activity at 10 µM (cSRC) [%] | inhibition at 10 µM (PI3K (p110d/p85a); 10 μM, read-out: inhibition of PI3K (p110δ/p85α)) [%] | IC50 (PI3K (p110d/p85a); biochemical dose response, duplicate, read-out: Inhibition of indicated activity (IC50, μM): PI3K (p110δ/p85α)) [µM] |
| --- | --- | --- | --- | --- | --- | --- | --- | --- | --- | --- | --- | --- |
| CC(C)(C)N1CCC(c2cc(-c3ccc(F)cc3Cl)c3cc[n+]([O-])c(-c4c(Cl)cccc4Cl)c3n2)CC1 [compound 2] | 103 | 105 | 104 | 83 | 100 | 93 | 100 | 95 | 96 | 107 | – | – |
| Cc1ccc(C(=O)NCC2CC2)cc1-c1ccc2c(c1)NC(=O)C21CCCC1 [compound 3] | 100 | 108 | 110 | 86 | 99 | 90 | 96 | 101 | 88 | 103 | – | – |
| Cn1cc(-c2cccc(-c3nc(C(=O)NC4C5CC6CC4CC(O)(C6)C5)c(N)nc3N)c2)cn1 (stereo not shown) [compound 4] | 94 | 105 | 95 | 87 | 85 | 21 | 85 | 66 | 102 | 69 | 79 | 0.233 |
| CS(=O)(=O)N1CCN(c2ccc(Nc3ncc(C(N)=O)c(NC4CC4)n3)cc2)CC1 [compound 5] | 1 | 43 | 1 | 45 | 4 | 90 | 3 | 0 | 1 | 16 | – | – |
| COc1c(NC(=O)c2ccc(C)c(-c3nnc4c(NCC(C)(C)C)nccn34)c2)cc(C(C)(C)C)cc1NS(C)(=O)=O [compound 7, reference compound] | 103 | 114 | 110 | 109 | 95 | 90 | 93 | 86 | 92 | 103 | – | – |
